Data reported in PubChem BioAssay (NCI).
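Results reflect a 48-hour exposure of cells in 96-well plates to compound at five concentrations. TGI: total growth inhibition.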

Key:
Assay in all cases: growth of human tumour cells (NCI), 48 h
HCT-116 colon = test system: HCT-116 colon
CCRF-CEM leukemia = test system: CCRF-CEM leukemia
EKVX NSCLC = test system: EKVX NSCLC
SR leukemia = test system: SR leukemia
OVCAR-4 ovarian = test system: OVCAR-4 ovarian
OVCAR-3 ovarian = test system: OVCAR-3 ovarian
SNB-19 CNS = test system: SNB-19 CNS
ACHN renal = test system: ACHN renal
UACC-62 melanoma = test system: UACC-62 melanoma
RPMI-8226 leukemia = test system: RPMI-8226 leukemia
A549 NSCLC = test system: A549 NSCLC
PC-3 prostate = test system: PC-3 prostate
HOP-92 NSCLC = test system: HOP-92 NSCLC
HCC-2998 colon = test system: HCC-2998 colon
SF-295 CNS = test system: SF-295 CNS
K-562 leukemia = test system: K-562 leukemia
NCI-H23 lung = test system: NCI-H23 lung
T-47D breast = test system: T-47D breast
MDA-N = test system: MDA-N
OVCAR-5 ovarian = test system: OVCAR-5 ovarian
HL-60(TB) leukemia = test system: HL-60(TB) leukemia
MOLT-4 leukemia = test system: MOLT-4 leukemia
LOX IMVI melanoma = test system: LOX IMVI melanoma
TK-10 renal = test system: TK-10 renal
SNB-75 CNS = test system: SNB-75 CNS
SK-MEL-28 melanoma = test system: SK-MEL-28 melanoma
SF-539 CNS = test system: SF-539 CNS
DU-145 prostate = test system: DU-145 prostate
786-0 renal = test system: 786-0 renal
MDA-MB-231 breast = test system: MDA-MB-231 breast
NCI-H522 lung = test system: NCI-H522 lung
SK-MEL-5 melanoma = test system: SK-MEL-5 melanoma
BT-549 breast = test system: BT-549 breast
UACC-257 melanoma = test system: UACC-257 melanoma
SN12C renal = test system: SN12C renal
U251 CNS = test system: U251 CNS
RXF 393 renal = test system: RXF 393 renal
UO-31 renal = test system: UO-31 renal
NCI-H226 lung = test system: NCI-H226 lung
MALME-3M melanoma = test system: MALME-3M melanoma
HT29 colon = test system: HT29 colon
M14 melanoma = test system: M14 melanoma
COLO 205 colon = test system: COLO 205 colon
NCI/ADR-RES ovarian = test system: NCI/ADR-RES ovarian
HS 578T breast = test system: HS 578T breast
SW-620 colon = test system: SW-620 colon
SK-OV-3 ovarian = test system: SK-OV-3 ovarian
MDA-MB-435 = test system: MDA-MB-435
MCF7 breast = test system: MCF7 breast
HOP-62 NSCLC = test system: HOP-62 NSCLC
OVCAR-8 ovarian = test system: OVCAR-8 ovarian
NCI-H460 lung = test system: NCI-H460 lung
SF-268 CNS = test system: SF-268 CNS
HCT-15 colon = test system: HCT-15 colon
KM12 colon = test system: KM12 colon
SK-MEL-2 melanoma = test system: SK-MEL-2 melanoma
IGROV1 ovarian = test system: IGROV1 ovarian
CAKI-1 renal = test system: CAKI-1 renal

SMILES: CC(=O)C(=C(c1ccccc1)c1ccccc1)c1ccccc1
- TGI (HCT-116 colon): > 100 µM
- TGI (CCRF-CEM leukemia): > 100 µM
- TGI (EKVX NSCLC): 80.2 µM
- TGI (SR leukemia): > 100 µM
- TGI (OVCAR-4 ovarian): > 100 µM
- TGI (OVCAR-3 ovarian): > 100 µM
- TGI (SNB-19 CNS): > 100 µM
- TGI (ACHN renal): > 100 µM
- TGI (UACC-62 melanoma): > 100 µM
- TGI (RPMI-8226 leukemia): > 100 µM
- TGI (A549 NSCLC): > 100 µM
- TGI (PC-3 prostate): > 100 µM
- TGI (HOP-92 NSCLC): > 100 µM
- TGI (HCC-2998 colon): > 100 µM
- TGI (SF-295 CNS): > 100 µM
- TGI (K-562 leukemia): > 100 µM
- TGI (NCI-H23 lung): > 100 µM
- TGI (T-47D breast): > 100 µM
- TGI (MDA-N): > 100 µM
- TGI (OVCAR-5 ovarian): > 100 µM
- TGI (HL-60(TB) leukemia): > 100 µM
- TGI (MOLT-4 leukemia): > 100 µM
- TGI (LOX IMVI melanoma): > 100 µM
- TGI (TK-10 renal): > 100 µM
- TGI (SNB-75 CNS): > 100 µM
- TGI (SK-MEL-28 melanoma): > 100 µM
- TGI (SF-539 CNS): > 100 µM
- TGI (DU-145 prostate): > 100 µM
- TGI (786-0 renal): > 100 µM
- TGI (MDA-MB-231 breast): > 100 µM
- TGI (NCI-H522 lung): > 100 µM
- TGI (SK-MEL-5 melanoma): > 100 µM
- TGI (BT-549 breast): > 100 µM
- TGI (UACC-257 melanoma): > 100 µM
- TGI (SN12C renal): > 100 µM
- TGI (U251 CNS): > 100 µM
- TGI (RXF 393 renal): > 100 µM
- TGI (UO-31 renal): > 100 µM
- TGI (NCI-H226 lung): > 100 µM
- TGI (MALME-3M melanoma): > 100 µM
- TGI (HT29 colon): > 100 µM
- TGI (M14 melanoma): > 100 µM
- TGI (COLO 205 colon): > 100 µM
- TGI (NCI/ADR-RES ovarian): > 100 µM
- TGI (HS 578T breast): > 100 µM
- TGI (SW-620 colon): > 100 µM
- TGI (SK-OV-3 ovarian): > 100 µM
- TGI (MDA-MB-435): > 100 µM
- TGI (MCF7 breast): > 100 µM
- TGI (HOP-62 NSCLC): > 100 µM
- TGI (OVCAR-8 ovarian): > 100 µM
- TGI (NCI-H460 lung): > 100 µM
- TGI (SF-268 CNS): > 100 µM
- TGI (HCT-15 colon): > 100 µM
- TGI (KM12 colon): > 100 µM

SMILES: CC[C@]1(Cc2ccc(OC)c(OC)c2)C=[N+]([O-])O[C@H](OC2CCCC2(c2ccccc2)c2ccccc2)[C@@H]1OC(=O)c1ccccc1 (stereo partly specified)
- TGI (HCT-116 colon): > 100 µM
- TGI (CCRF-CEM leukemia): > 30.1 µM
- TGI (EKVX NSCLC): > 23.8 µM
- TGI (SR leukemia): > 100 µM
- TGI (OVCAR-4 ovarian): > 100 µM
- TGI (OVCAR-3 ovarian): 13.7 µM
- TGI (SNB-19 CNS): > 100 µM
- TGI (ACHN renal): > 34.8 µM
- TGI (UACC-62 melanoma): > 38.6 µM
- TGI (A549 NSCLC): > 100 µM
- TGI (PC-3 prostate): > 100 µM
- TGI (HOP-92 NSCLC): > 100 µM
- TGI (HCC-2998 colon): > 27.4 µM
- TGI (SF-295 CNS): > 65.4 µM
- TGI (K-562 leukemia): > 100 µM
- TGI (NCI-H23 lung): > 45.9 µM
- TGI (T-47D breast): > 27.2 µM
- TGI (MDA-N): > 100 µM
- TGI (OVCAR-5 ovarian): > 100 µM
- TGI (HL-60(TB) leukemia): > 100 µM
- TGI (MOLT-4 leukemia): > 21.9 µM
- TGI (LOX IMVI melanoma): > 27.5 µM
- TGI (TK-10 renal): > 33.4 µM
- TGI (SNB-75 CNS): > 37.9 µM
- TGI (SK-MEL-28 melanoma): > 100 µM
- TGI (SF-539 CNS): > 100 µM
- TGI (DU-145 prostate): > 56.3 µM
- TGI (786-0 renal): > 100 µM
- TGI (MDA-MB-231 breast): > 100 µM
- TGI (NCI-H522 lung): > 100 µM
- TGI (SK-MEL-5 melanoma): 12.7 µM
- TGI (BT-549 breast): > 100 µM
- TGI (UACC-257 melanoma): > 66.5 µM
- TGI (SN12C renal): > 88.2 µM
- TGI (U251 CNS): > 100 µM
- TGI (RXF 393 renal): > 25.9 µM
- TGI (UO-31 renal): > 100 µM
- TGI (NCI-H226 lung): > 100 µM
- TGI (SK-MEL-2 melanoma): 37.5 µM
- TGI (HT29 colon): > 71.1 µM
- TGI (M14 melanoma): > 100 µM
- TGI (COLO 205 colon): > 100 µM
- TGI (IGROV1 ovarian): > 100 µM
- TGI (NCI/ADR-RES ovarian): > 62.7 µM
- TGI (HS 578T breast): > 100 µM
- TGI (SW-620 colon): > 100 µM
- TGI (SK-OV-3 ovarian): > 100 µM
- TGI (MDA-MB-435): > 46.3 µM
- TGI (MCF7 breast): > 24.9 µM
- TGI (HOP-62 NSCLC): 62.3 µM
- TGI (CAKI-1 renal): > 100 µM
- TGI (OVCAR-8 ovarian): > 100 µM
- TGI (NCI-H460 lung): > 100 µM
- TGI (SF-268 CNS): > 100 µM
- TGI (HCT-15 colon): > 100 µM
- TGI (KM12 colon): 22.9 µM
